# Experimental data from US10703748B2, “Diazanaphthalen-3-yl carboxamides and preparation and use thereof” (Samumed, LLC, priority 2017, dated 2020).
# pEC50: −log10 of the molar value.
# Legend:
# [1] = system: Tau phosphorylation at Threonine 212 (pT212Tau); test: Tau phosphorylation at Threonine 212 (pT212Tau) in Dyrk1a- and MAPT-overexpressing HEK293T cells, sandwich ELISA; format: cell-based; conditions: Homo sapiens, HEK-293T, overnight (16-18 hours), read-out: Thr212 EC50
# Method: HEK293T cells (transfectable human embryonic kidney cells) were cultured in DMEM medium supplemented with 10% FBS and 1% penicillin/streptomycin.
# HEK293T cells were transiently transfected to overexpress Dyrk1a and microtubule-associated protein Tau (MAPT) genes. Specifically, Dyrk1a and MAPT expression vectors were obtained from OriGene (10 μg of each, catalog numbers SC314641 and RC216166, respectively). A MaxiPrep for each vector was ordered and received from GeneWiz, yielding 874.5 μg (resuspended at […]) of the Dyrk1a expression vector, and 898 μg (resuspended at […]) of MAPT.
# HEK293T cells were seeded at 1.0×10^7 cells in 10 mL per T-75 flask. […] One T-75 flask was designated as a no-vector negative control for pT212Tau signal.
# After 4-6 hours of incubation in transfection reagents, transiently double transfected HEK293T cells were dissociated by treatment with trypsin EDTA and seeded at 1.0×10^5 cells in 100 μL per well in 96-well plates. No-vector negative controls were seeded in separate 96-well plates to avoid the risk of the negative control cells picking up the overexpression during incubation. At the time of seeding, DMSO-resuspended Samumed compounds were dispensed to eight wells as a serial dilution from 10 μM to 4.6 nM final concentration in medium, or at 0.12 μM to 0.05 nM with particularly potent compounds. Cells were exposed to the representative compounds overnight (16-18 hours) in a 37° C. incubator.
# 96-Well flat-bottom plates were coated with 100 μL per well anti-HT7 capture antibody (ThermoFisher, MN1000) diluted 1:300 in 1×PBS at 4° C. overnight, with shaking at 500 rpm. After overnight capture antibody incubation, coated plates were washed four times with 200 μL per well of 1×PBS-0.05% Tween-20, and blocked for 1 hour with 200 μL per well of 1×PBS with 2% BSA. After 1 hour of blocking, plates were washed four times with 200 μL per well of 1×PBS-0.05% Tween-20, prior to sample loading.
# Wells of compound-treated cells were visually checked for cell death before being washed with 200 μL per well of 1×DPBS supplemented with phosphatase inhibitor diluted to 1×. Cells were then lysed with 100 μL 1×RIPA buffer supplemented with phosphatase and protease inhibitors (each diluted to a final 1×). Cells were shaken at 500 rpm, 4° C. for 20 minutes prior to further lysis (via manual scraping) and transfer to 96-well V-bottom collection plates (Corning, 3894). V-bottom plates were centrifuged at 4000 rpm, 4° C., for 15 minutes, and 100 μL of lysate supernatant from each well was directly tested for pT212Tau signal by sandwich ELISA.
# Specifically, lysates were directly transferred to the coated and blocked ELISA plates for 2 hours before plates were washed four times with 200 μL per well of 1×PBS-0.05% Tween-20 and probed with 100 μL per well of anti-pT212Tau antibody (ThermoFisher, 44-740G) diluted 1:200 in 1×PBS for 2 hours. Plates were washed four times with 200 μL per well of 1×PBS-0.05% Tween-20 and probed with 100 μL per well of anti-rabbit/HRP conjugate (Cell Signaling Technology, 7074S) diluted 1:600 in 1×PBS for 1 hour. Plates were washed four times with 200 μL per well of 1×PBS-0.05% Tween-20 before 100 μL per well of TMB substrate solution (ThermoFisher, N301) was added. When colour development was observed, 100 μL per well of stop solution (ThermoFisher, N600) was added, and colorimetric detection of pT212Tau signal was read at 450 nm with the Cytation 3 Cell Imaging Multi-Mode Reader (BioTek). The signal was used to plot, draw the curves fitting, and determine the EC50 values in GraphPad Prism for tested representative compounds.
# GSK3β kinase = GSK3β kinase (Homo sapiens, UniProt P49841); test: GSK3β kinase activity (Ser/Thr 09 peptide Z-lyte FRET assay); format: biochemical; conditions: recombinant kinase, 46 μM ATP, one hour at room temperature; read-out: EC50
# Sequence of GSK3β kinase (P49841 whole entry): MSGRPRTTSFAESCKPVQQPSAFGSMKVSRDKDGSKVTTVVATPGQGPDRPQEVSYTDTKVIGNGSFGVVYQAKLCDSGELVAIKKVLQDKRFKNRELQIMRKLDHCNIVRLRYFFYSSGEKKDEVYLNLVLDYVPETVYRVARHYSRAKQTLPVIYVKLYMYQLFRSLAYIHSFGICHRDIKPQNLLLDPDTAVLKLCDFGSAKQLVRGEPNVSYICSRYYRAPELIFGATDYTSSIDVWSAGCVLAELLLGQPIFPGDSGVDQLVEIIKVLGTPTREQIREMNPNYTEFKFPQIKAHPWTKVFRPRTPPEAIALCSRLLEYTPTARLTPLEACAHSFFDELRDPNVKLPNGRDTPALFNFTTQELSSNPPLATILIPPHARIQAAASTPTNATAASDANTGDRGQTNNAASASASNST
# DYRK1A kinase = DYRK1A kinase (Homo sapiens, UniProt Q13627); test: DYRK1A kinase activity (Ser/Thr 18 peptide Z-lyte FRET assay); format: biochemical; conditions: recombinant DYRK1A, 30 μM ATP, one hour at room temperature;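 further: kinase activity read as coumarin/fluorescein emission ratio after development step, with unphosphorylated and phosphorylated peptide forms setting 0% and 100% controls, values from dose-response curves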
# IL-6 = IL-6 inhibition in LPS-stimulated human peripheral blood mononuclear cells (HTRF); conditions: Homo sapiens, PBMC; for pEC50: 22 h; for inhibition at 10 µM: read-out: percentage in parentheses after EC50 >10
# [2] = system: Wnt-responsive Sp5-Luc reporter in SW480 colon carcinoma cells; test: Screening assay for Wnt activity (Sp5-Luc reporter gene assay); conditions: Homo sapiens; for pEC50: SW480; for inhibition at 10 µM: SW480, read-out: percent inhibition at 10 μM
# [3] = system: SW480 colon carcinoma cells; test: Cell viability assay (CellTiter-Glo); conditions: Homo sapiens; for pEC50: SW480, 96 h; for inhibition at 10 µM: SW480, read-out: percent inhibition at 10 μM
# [4] = system: α-smooth muscle actin (aSMA) positive LL29 cells; test: Inhibition of the fibrotic process: αSMA staining in TGF-β1 treated LL29 fibroblasts from IPF patients; conditions: Homo sapiens, Fibroblast; for pEC50: 96 h; for inhibition at 10 µM: read-out: percentage in parentheses after EC50 >10
# [5] = system: secreted cytokines TNFα, IL-6 and KC-GRO; test: Secreted cytokines in Lipopolysaccharide-stimulated BV-2 cells (Table 9 does not say which cytokine); format: cell-based, mouse; conditions: Mus musculus, BV-2, 5 h; read-out: EC50
# [6] = system: Tau phosphorylation at Ser396 (pSer396); test: Tau phosphorylation at Ser396 (pSer396) in SH-SY5Y cells, ELISA / western blot; format: cell-based, human; conditions: Homo sapiens; SH-SY5Y cells, overnight (16-18 h); read-out: pSer396 Tau EC50;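 further: decrease in pSer396 Tau measured in lysates of treated cells by colorimetric ELISA or chemiluminescent western blot, same pSer396 antibody for both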
# Method: Two days before treatment, cells were seeded onto 96 well plates at 5×10^4 cells/well.
# The above synthesized compounds were screened using the cell assay procedure to assess decrease Tau phosphorylation at Ser396 (pSer396) described below.
# Cells were lysed with RIPA buffer complemented with phosphatase and protease inhibitors then lysates were spun down at 12,000 g for 10 min to remove any cellular debris.
SMILES,pEC50 [1],pEC50 (GSK3β kinase),pEC50 (DYRK1A kinase),pEC50 (IL-6),pEC50 [2],pEC50 [3],pEC50 [5],pEC50 [6],inhibition at 10 µM [2] [%],pEC50 [4],inhibition at 10 µM (IL-6) [%],inhibition at 10 µM [3] [%],inhibition at 10 µM [4] [%]
"Cn1ncc(-c2ccc3cnc(NC(=O)C4CC5(C4)CN(CCF)C5)cc3n2)c1CN1CCCCC1 [Compound 280, 2-(2-Fluoroethyl)-N-(2-(1-methyl-5-(piperidin-1-ylmethyl)-1H-pyrazol-4-yl)-1,6-naphthyridin-7-yl)-2-azaspiro[3.3]heptane-6-carboxamide]",7.49,6.47,6.82,5.24,< 5.00,5.62,,,33.7,5.60,,,
"Cc1ncc(-c2ccc3cnc(NC(=O)N4CCC(N5CCOCC5)CC4)cc3n2)o1 [Compound 566, N-(2-(2-Methyloxazol-5-yl)-1,6-naphthyridin-7-yl)-4-morpholinopiperidine-1-carboxamide]",5.18,6.21,7.11,< 5.00,< 5.00,< 5.00,,,33.2,< 5.00,3.6,19.7,35.2
"Cn1cncc1-c1ccc2cnc(NC(=O)c3ccc(F)cc3)nc2c1 [Compound 1354, 4-Fluoro-N-(7-(1-methyl-1H-imidazol-5-yl)quinazolin-2-yl)benzamide]",8.22,5.93,8.70,< 5.00,5.62,5.27,,,,5.29,39.9,,
"Cc1ncc(-c2ccc3cnc(NC(=O)[C@H]4CC[C@H](CO)CC4)cc3n2)s1 [Compound 4558, trans-4-(Hydroxymethyl)-N-(2-(2-methylthiazol-5-yl)-1,6-naphthyridin-7-yl) cyclohexane-1-carboxamide]",,7.00,8.40,5.03,5.55,5.24,6.78,5.15,,6.56,,,
"Cc1ncc(-c2ccc3cnc(NC(=O)[C@H]4CC[C@H](N(C)C)CC4)cc3n2)s1 [Compound 4559, trans-4-(Dimethylamino)-N-(2-(2-methylthiazol-5-yl)-1,6-naphthyridin-7-yl) cyclohexane-1-carboxamide]",,6.96,7.85,5.07,< 5.00,< 5.00,6.39,5.62,40.8,6.23,,44.8,
"Cc1ncc(-c2ccc3cnc(NC(=O)C4CCN(C5COC5)CC4)cc3n2)s1 [Compound 4560, N-(2-(2-Methylthiazol-5-yl)-1,6-naphthyridin-7-yl)-1-(oxetan-3-yl) piperidine-4-carboxamide]",,6.90,7.85,< 5.00,< 5.00,< 5.00,6.93,6.00,49.7,6.11,2.7,37.5,
"O=C(Nc1ncc2ccc(-c3cncs3)cc2n1)[C@H]1CC[C@H](CO)CC1 [Compound 4586, trans-4-(hydroxymethyl)-N-(7-(thiazol-5-yl)quinazolin-2-yl)cyclohexane-1-carboxamide]",,6.47,8.70,< 5.00,< 5.00,< 5.00,6.42,5.06,29.6,5.35,4.8,25.1,
O=C(Nc1cc2cc(-c3cnco3)cnc2cn1)[C@H]1CC[C@H](CO)CC1 [Compound 4610],,< 5.00,7.54,< 5.00,< 5.00,< 5.00,6.58,< 5.00,9.1,5.38,10.3,24.6,
CN(C)[C@H]1CC[C@H](C(=O)Nc2cc3cc(-c4cncs4)cnc3cn2)CC1 [Compound 4618],,5.42,7.74,< 5.00,< 5.00,< 5.00,6.97,5.98,14.6,5.32,6.3,36.1,

# More lines, main results first:
pEC50 [1],pEC50 (GSK3β kinase),pEC50 (DYRK1A kinase),pEC50 (IL-6),pEC50 [2],pEC50 [3],pEC50 [5],pEC50 [6],SMILES,inhibition at 10 µM [2] [%],pEC50 [4],inhibition at 10 µM (IL-6) [%],inhibition at 10 µM [3] [%],inhibition at 10 µM [4] [%]
,6.73,8.05,5.54,6.46,5.39,6.79,6.03,"Cn1cc(-c2ccc3cnc(NC(=O)[C@H]4CC[C@H](NCCF)CC4)cc3n2)cn1 [Compound 4535, trans-4-((2-Fluoroethyl)amino)-N-(2-(1-methyl-1H-pyrazol-4-yl)-1,6-naphthyridin-7-yl) cyclohexane-1-carboxamide]",,< 5.00,,,25
,6.50,7.85,5.52,6.08,< 5.00,7.05,< 5.00,"COCCN[C@H]1CC[C@H](C(=O)Nc2cc3nc(-c4cnn(C)c4)ccc3cn2)CC1 [Compound 4536, trans-4-((2-Methoxyethyl)amino)-N-(2-(1-methyl-1H-pyrazol-4-yl)-1,6-naphthyridin-7-yl) cyclohexane-1-carboxamide]",,5.94,,45.9,
,7.74,7.48,5.11,7.23,5.25,6.45,7.12,"Cc1ncc(-c2ccc3cnc(NC(=O)C(C)N4CCCC4)cc3n2)n1C (stereo not drawn) [Compound 4544, N-(2-(1,2-Dimethyl-1H-imidazol-5-yl)-1,6-naphthyridin-7-yl)-2-(pyrrolidin-1-yl)propanamide]",,5.96,,,
,6.49,8.30,< 5.00,6.04,< 5.00,6.15,5.10,"CN1CCN(c2ncc(C(=O)Nc3cc4cc(-c5cnn(C)c5)ncc4cn3)s2)CC1 [Compound 4632, N-(6-(1-methyl-1H-pyrazol-4-yl)-2,7-naphthyridin-3-yl)-2-(4-methylpiperazin-1-yl)thiazole-5-carboxamide]",,< 5.00,6.8,40.9,35.5
